Results from patent US6420377B1, “Covalent conjugates of topoisomerase I and topoisomerase II inhibitors” (priority 1997, dated 2002).
Like-named read-outs stand apart in the source and are kept apart here.

Legend:
KB cells [1] = experiment: Gel lysis assay for genomic DNA breaks; type: cell-based; settings: for reversal of genomic DNA fragmentation upon drug removal: additional hour in fresh media
Protocol: One million KB cells in 25cm^2 flasks were treated for three hours with test compound, the medium was discarded then cells were scraped into ice-cold PBS and harvested by centrifugation. Washed cell pellets were resuspended in eighty microliters of a 37° C. gel solution [1% (w/v) low-melting point agarose in PBS], and were cast in a mold and refrigerated to form 6×7×2 mm agarose plugs. Plugs of cells were incubated in lysis-digestion buffer (0.4M EDTA, 0.01 Tris (HCl, pH 8.0), 1% (w/v) N-lauryl-sarcosine and 100 μg/mL proteinase K) at 37° overnight or 50° for one hour. The treated plugs were equilibrated in TBE buffer and placed against a gel comb in a horizontal gel casting tray (BRL Inc., H4 system format). A 55° gel solution containing 0.8% (w/v) agarose in TBE was poured and allowed to gel. Electrophoresis was at 3.5 v/cm (measured between electrodes) for 16 hours at 4° without buffer re-circulation. The gel was stained with 1 μg/mL ethidium bromide in water, treated overnight at 25° C. with RN'ase (1 μg/mL), and then photographed under UV illumination. For the reversibility studies, treated cells were washed with PBS and incubated with fresh media for an additional hour before harvesting for plug preparation and gel analysis.

[2] = biological target: T1, calf thymus DNA topoisomerase I (Bos taurus, UniProt F1MN93); experiment: In vitro topoisomerase-DNA cleavage assay, topoisomerase I; type: biochemical; settings: for stimulation of topoisomerase I cleavage activity, dose behaviour: higher test concentrations; for cleavable complex formation with topoisomerase I / topoisomerase I cleavable complex activity relative to unconjugated components: ten micromolar; for cleavable complex formation with topoisomerase I: FIG. 1A; for topoisomerase I cleavable complex activity relative to unconjugated components: S-1 vs 3, 4a, S-2 vs 3, 4b
T1 construct: Calf thymus DNA topoisomerases were purchased from TopoGen Inc., Columbus, Ohio; purchased TopoGen Inc., Columbus, Ohio; host or cells: calf thymus (tissue-derived enzyme)
T1 sequence (F1MN93 1-767): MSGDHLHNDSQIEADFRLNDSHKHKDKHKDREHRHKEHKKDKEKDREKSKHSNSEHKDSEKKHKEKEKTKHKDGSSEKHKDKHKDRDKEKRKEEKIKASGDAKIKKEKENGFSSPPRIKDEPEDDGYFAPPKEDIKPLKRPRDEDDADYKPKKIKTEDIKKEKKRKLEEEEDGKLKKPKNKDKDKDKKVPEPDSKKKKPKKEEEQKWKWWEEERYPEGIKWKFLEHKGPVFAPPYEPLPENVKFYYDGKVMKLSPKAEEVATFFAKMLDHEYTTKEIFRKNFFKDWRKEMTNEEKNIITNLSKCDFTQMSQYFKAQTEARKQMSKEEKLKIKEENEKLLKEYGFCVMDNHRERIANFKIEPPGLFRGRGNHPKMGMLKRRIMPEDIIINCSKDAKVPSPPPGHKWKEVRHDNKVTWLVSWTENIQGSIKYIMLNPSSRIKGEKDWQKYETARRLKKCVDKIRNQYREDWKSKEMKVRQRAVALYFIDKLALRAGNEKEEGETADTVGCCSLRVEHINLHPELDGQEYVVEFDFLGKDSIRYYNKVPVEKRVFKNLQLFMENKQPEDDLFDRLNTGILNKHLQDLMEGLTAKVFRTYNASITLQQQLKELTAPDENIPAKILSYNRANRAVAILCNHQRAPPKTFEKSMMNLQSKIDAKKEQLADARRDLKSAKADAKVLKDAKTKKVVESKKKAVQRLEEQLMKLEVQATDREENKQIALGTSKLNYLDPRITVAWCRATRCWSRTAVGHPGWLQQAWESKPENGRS
Excerpt: (§1) Calf thymus DNA topoisomerases were purchased from TopoGen Inc., Columbus, Ohio. Tritium-labeled thymidine (60-90 ci/mmol) for labeling cellular DNA to measure protein-DNA complexes and αP^32-labeled deoxycytidine triphosphate (>3000 ci/mmol) were obtained from ICN Biochemicals Inc., Irvine, Calif. The latter radiochemical was used with a T4-DNA polymerase polymerase-labeling system from BRL Inc., Gaithersburg, Md., to prepare P^32-plasmid DNA for in vitro cleavage assays. Tissue culture reagents were purchased from Sigma Chemical Co., St. Louis, Mo., and Gibco-BRL Inc. All other chemicals were reagent grade.
(§2) The detailed method used to measure stimulation of cleavable complexes in vitro is described in K. Bastow et al., Planta Med. 59:195 (1993).. Briefly, incubated cleavage reactions containing one nanogram of P^32 end-labeled linearized PBR322 DNA, one unit of enzyme and test compound were divided equally for analysis. One portion was prepared for gel electrophoresis with subsequent autoradiography and protein-DNA complexes in the remaining sample were analyzed using the potassium-SDS precipitation method and scintillation spectrometry.

[3] = test system: KB oral carcinoma cell line; experiment: Cell growth inhibition, KB cells; type: cell-based; settings: for IC50: Homo sapiens, KB
Protocol: (§3) The KB oral carcinoma cell line was provided by M. Fisher (Pharmacology, UNC- Chapel Hill). The isolation and properties of the etoposide-resistant sub-clone, KB-7d, and the camptothecin-resistant line, KB-CPT100, were reported in P. Ferguson et al., Cancer Res. 48:5956 (1988) and D. Beidler et al., Cancer Res. 56:345 (1996), and are discussed briefly hereinafter. The vincristine-resistant sub-clone, KB-VIN20c was isolated by selection in 20 nM vincristine and over-expresses the P-glycoprotein multidrug-resistant drug-efflux protein (unpublished results).
(§4) All cell types were propagated in RPMI-1640 medium supplemented with 5% (v/v) fetal calf serum and 100 μg/mL kanamycin at 37° in a humidified atmosphere of 5% CO2 and 95% air. Over the course of the experiments, doubling times of cells were 24±4 hours.
(§5) Fifty thousand cells were plated in 25 cm^2 flasks (Falcon, N.J., USA) and incubated overnight. The medium was supplemented with test compounds at various concentrations and cultures were incubated for 48-51 hours (for about two cell doublings) before cells were trypsinized and then counted using a hemacytometer. The number of treated cells which excluded 0.5% (v/v) trypan blue were expressed as a percentage of the growth measured in control cultures. Compounds were evaluated in at least two independent experiments and the combined results were analyzed as scatter plots with dose-responses being computer fitted by linear regression at the 95% confidence level using Graphpad Software., San Diego, Calif. The IC50 concentrations which inhibited cell growth by fifty percent relative to control were interpolated from graphed results.

KB-VIN20c [4] = experiment: Cell growth inhibition, vincristine-resistant KB-VIN20c cells; type: cell-based; settings: for IC50: read-out: Cell Growth Inhibition IC50
Protocol: as §3, §4, §5

KB-VIN20c [5] = experiment: Cytotoxicity measured as reduced plating efficiency, KB-VIN20c cells; type: cell-based; settings: 3 h, read-out: Cytotoxicity Measured as Reduced Plating Efficiency IC50
Protocol: (§6) LC50 concentrations were determined by treating cells for three hours with different concentrations of compounds then replating cells to measure colony formation and plating efficiency as the percent of total cells forming colonies. Compounds were evaluated in three independent experiments. The plating efficiences of untreated cells varied between experiments with values ranging from 14-31% for KB, 31-56% for KB-7d, 16-38% for KB-VIN20c and 21-36% for KB-CPT100. A concentration of compound that reduced plating efficiency by fifty percent relative to control, the LC50, was determined graphically as stated in the preceding section.

KB-CPT100 [6] = experiment: Cell growth inhibition, camptothecin-resistant KB-CPT100 cells; type: cell-based; settings: for cross-resistance of KB-CPT100 cells, growth inhibition: relative to KB
Protocol: as §3, §4, §5

KB-7d [7] = experiment: Cell growth inhibition, etoposide-resistant KB-7d cells; type: cell-based; settings: for IC50: KB7D, read-out: Cell Growth Inhibition IC50
Protocol: as §3, §4, §5

KB = experiment: Cytotoxicity measured as reduced plating efficiency, KB cells; type: cell-based; settings: Homo sapiens, 3 h, read-out: Cytotoxicity Measured as Reduced Plating Efficiency IC50
Protocol: as §6

KB-7d [8] = experiment: Cytotoxicity measured as reduced plating efficiency, KB-7d cells; type: cell-based; settings: for IC50: KB7D, 3 h, read-out: Cytotoxicity Measured as Reduced Plating Efficiency IC50
Protocol: as §6

[9] = test system: KB oral carcinoma cell line; settings: KB growth inhibition; cited from earlier work
KB cells [10] = experiment: Cellular protein-DNA complex formation (potassium-SDS precipitation); type: cell-based; settings: one hour
Protocol: Stimulation of intracellular protein associated DNA breaks was measured using a standard assay method described in Y. Kashiwada et al., J. Pharm. Sci. 82:487 (1993). Briefly, KB cells were labeled overnight with tritiated thymidine (0.5 μCi/mL), chased for two hours and then treated in triplicate with test compounds at various concentrations. After one hour, samples were processed and protein-DNA complexes were measured as potassium-SDS precipitable radioactivity.

KB-7d [11] = settings: relative to KB; cited from earlier work
[12] = test system: calf thymus DNA topoisomerase II; experiment: In vitro topoisomerase-DNA cleavage assay, topoisomerase II; type: biochemical; settings: for cleavable complex formation with topoisomerase II: FIG. 1A; for topoisomerase II cleavable complex activity relative to unconjugated components: S-1 vs 3, 4a, S-2 vs 3, 4b
Excerpt: as §1, §2

KB-CPT100 [13] = settings: relative to KB; cited from earlier work
KB-CPT100 [14] = experiment: Cytotoxicity measured as reduced plating efficiency, KB-CPT100 cells; type: cell-based; settings: KBCPT100, 3 h, read-out: Cytotoxicity Measured as Reduced Plating Efficiency IC50
Protocol: as §6

[15] = fifty-times the IC50 for KB growth inhibition (etoposide eight, 4b four, 3 0.4, S-2 0.8 micromolar), three hours
[16] = twenty-fold higher concentration (3 at sixteen micromolar), three hours
[17] = twenty-fold higher concentration

Row | SMILES | genomic DNA fragmentation (KB cells [1]; [15]) | genomic DNA fragmentation (KB cells [1]; [16]) | reversal of genomic DNA fragmentation upon drug removal (KB cells [1]; [17]) | stimulation of topoisomerase I cleavage activity, dose behaviour [2] | IC50 (KB-VIN20c [5]) | cross-resistance of KB-CPT100 cells, growth inhibition (KB-CPT100 [6]) | IC50 (KB) | IC50 (KB-7d [8]) | IC50 [9] | stimulation of in vitro topoisomerase II cleavable-complexes, dose behaviour [12] | stimulation of topoisomerase II-induced DNA cleavage over enzyme control ([12]; fifty micromolar) | stimulation of topoisomerase II-induced DNA cleavage over enzyme control ([12]; one micromolar) | stimulation of topoisomerase II-induced DNA cleavage over enzyme control ([12]; ten micromolar) | cleavable complex formation with topoisomerase I [2] | topoisomerase I cleavable complex activity relative to unconjugated components [2] | cleavable complex formation with topoisomerase II ([12]; ten micromolar) | topoisomerase II cleavable complex activity relative to unconjugated components ([12]; ten micromolar) | also measured
1 | CC[C@@]1(O)C(=O)OCc2c1cc1n(c2=O)Cc2c-1nc1ccccc1c2C=O [Compound 3, 7-formyl camptothecin, reference compound] | inactive | marginal fragmentation | not affected by reversing treatment | not inhibited at higher test concentrations | 12 µM | about 58 fold | 10 µM | > 16 µM |  |  |  |  |  |  |  |  |  | IC50 ([3]; read-out: estimated IC50, KB cell growth): 0.007 µM; IC50 ([3]; 48-51 hours, two numbers in brackets after the value, read-out: Cell Growth Inhibition IC50): 0.007 µM; IC50 (KB-VIN20c [4]; XB-VIN20c (so in the source), 48-51 hours, two numbers in brackets after the value): 0.018 µM; cross-resistance of KB-VIN20c cells, growth inhibition (KB-VIN20c [4]; relative to KB): no more than 2 fold; IC50 (KB-CPT100 [6]; KBCPT100, KB-CPT100, 48-51 hours, two numbers in brackets after the value, read-out: Cell Growth Inhibition IC50): 0.575 µM; IC50 (KB-7d [7]; KB-7d, 48-51 hours, two numbers in brackets after the value): 0.009 µM; cross-resistance of KB-7d cells, growth inhibition (KB-7d [7]; relative to KB): equally active
2 | COc1cc([C@@H]2c3cc4c(cc3[C@@H](O[C@@H]3O[C@@H]5CO[C@@H](C)O[C@H]5[C@H](O)[C@H]3O)[C@H]3COC(=O)[C@H]23)OCO4)cc(OC)c1O [Compound C-1, etoposide, reference compound] | High molecular weight DNA fragments were detected |  |  |  |  |  |  |  | 0.16 ± 0.04 µM | act saturably | 12 fold | 1.5 fold | 3 fold |  |  |  |  | reversal of genomic DNA fragmentation upon drug removal (KB cells [1]; fifty-times the IC50): integrity of the DNA was restored; intracellular protein-DNA complex formation (KB cells [10]; one micromolar and lower): no measurable response; resistance of KB-7d cells (KB-7d [11]): 145 fold
3 | CC[C@@]1(O)C(=O)OCc2c1cc1n(c2=O)Cc2cc3ccccc3nc2-1 [Compound C-2, camptothecin] |  |  |  |  |  |  |  |  | 0.0098 ± 0.0032 µM |  |  |  |  |  |  |  |  | resistance of KB-CPT100 cells to growth-inhibitory effect (KB-CPT100 [13]): 32 fold
4 | CC[C@@]1(O)C(=O)OCc2c1cc1n(c2=O)Cc2c-1nc1ccccc1c2/C=N\c1ccc(N[C@@H]2c3cc4c(cc3[C@@H](c3cc(OC)c(O)c(OC)c3)[C@H]3C(=O)OC[C@@H]32)OCO4)cc1 [Compound S-1] |  |  |  |  |  |  |  |  |  |  |  |  |  | induced cleavable complexes | reduced about two-fold | induced cleavable complexes | reduced about two-fold | melting point: > 300 °C (dec.)
5 | CC[C@@]1(O)C(=O)OCc2c1cc1n(c2=O)Cc2c-1nc1ccccc1c2/C=N/c1ccccc1N[C@@H]1c2cc3c(cc2[C@@H](c2cc(OC)c(O)c(OC)c2)[C@H]2C(=O)OC[C@@H]21)OCO3 [Compound S-2] |  | high molecular mass genomic fragments were detected | only partially restored | not inhibited at higher test concentrations | 4.6 µM | only six-fold cross-resistant | 4 µM | > 15 µM |  | dose-inhibitory | only marginal stimulation | only marginal stimulation | ~4 fold | induced cleavable complexes | reduced about two-fold | induced cleavable complexes | reduced about two-fold | genomic DNA fragmentation (KB cells [1]): marginal DNA fragmentation; IC50 (KB-CPT100 [14]): 2 µM; activity at inhibiting KB cell growth relative to C-1 [3]: about ten-fold more active; IC50 ([3]; read-out: Cell Growth Inhibition IC50): 0.014 µM; intracellular protein-DNA complex formation, dose behaviour (KB cells [10]; high concentration (7.5-60 micromolar)): not dose-inhibitory at high concentration; IC50 (KB-VIN20c [4]): 0.027 µM; IC50 (KB-CPT100 [6]; KBCPT100, read-out: Cell Growth Inhibition IC50): 0.085 µM; IC50 (KB-7d [7]): 0.015 µM; cross-resistance of KB-7d cells to cytotoxic action (KB-7d [8]): appeared cross-resistant
